# Reference: ChEMBL document CHEMBL1649285, “In vivo efficacy of 1- and 2-gram human simulated prolonged infusions of doripenem against Pseudomonas aeruginosa” (Antimicrob Agents Chemother, 2009)
# What was measured:
# [1] = system: Pseudomonas aeruginosa; test: Antimicrobial activity against Pseudomonas aeruginosa isolate 1036 by broth microdilution method; assay type: functional
# [2] = system: Pseudomonas aeruginosa; test: Antimicrobial activity against Pseudomonas aeruginosa isolate 944 by broth microdilution method; assay type: functional
# [3] = system: Pseudomonas aeruginosa; test: Antimicrobial activity against Pseudomonas aeruginosa isolate 1050 by broth microdilution method; assay type: functional
# [4] = system: Pseudomonas aeruginosa; test: Antimicrobial activity against Pseudomonas aeruginosa isolate 1060 by broth microdilution method; assay type: functional
# [5] = system: Pseudomonas aeruginosa; test: Antimicrobial activity against Pseudomonas aeruginosa isolate 1095 by broth microdilution method; assay type: functional
# [6] = system: Pseudomonas aeruginosa; test: Antimicrobial activity against Pseudomonas aeruginosa isolate 22 by broth microdilution method; assay type: functional
# [7] = system: Pseudomonas aeruginosa; test: Antimicrobial activity against Pseudomonas aeruginosa isolate 878 by broth microdilution method; assay type: functional
# [8] = system: Pseudomonas aeruginosa; test: Antimicrobial activity against Pseudomonas aeruginosa isolate 896 by broth microdilution method; assay type: functional
# [9] = system: Pseudomonas aeruginosa; test: Antimicrobial activity against Pseudomonas aeruginosa isolate 988 by broth microdilution method; assay type: functional
# [10] = system: Pseudomonas aeruginosa; test: Antimicrobial activity against Pseudomonas aeruginosa isolate 1006 by broth microdilution method; assay type: functional
# [11] = system: Pseudomonas aeruginosa; test: Antimicrobial activity against Pseudomonas aeruginosa isolate 856 by broth microdilution method; assay type: functional
# [12] = system: Pseudomonas aeruginosa; test: Antimicrobial activity against Pseudomonas aeruginosa isolate 913 by broth microdilution method; assay type: functional
# [13] = system: Pseudomonas aeruginosa; test: Antimicrobial activity against Pseudomonas aeruginosa isolate 927 by broth microdilution method; assay type: functional
# [14] = system: Pseudomonas aeruginosa; test: Antimicrobial activity against Pseudomonas aeruginosa isolate 968 by broth microdilution method; assay type: functional
# [15] = system: Pseudomonas aeruginosa; test: Antimicrobial activity against Pseudomonas aeruginosa isolate 971 by broth microdilution method; assay type: functional
# [16] = system: Pseudomonas aeruginosa; test: Antimicrobial activity against Pseudomonas aeruginosa isolate 821 by broth microdilution method; assay type: functional
# [17] = system: Pseudomonas aeruginosa; test: Antimicrobial activity against Pseudomonas aeruginosa isolate 1080 by broth microdilution method; assay type: functional
# [18] = system: Pseudomonas aeruginosa; test: Antimicrobial activity against Pseudomonas aeruginosa isolate 1093 by broth microdilution method; assay type: functional
# [19] = fT>MIC in Pseudomonas aeruginosa selected at 2 ug/ml MIC infected human at 1 g, iv administered as 4 hrs infusion every 8 hrs; assay type: functional
# [20] = fT>MIC in Pseudomonas aeruginosa selected at 4 ug/ml MIC infected human at 1 g, iv administered as 4 hrs infusion every 8 hrs; assay type: functional
# [21] = fT>MIC in Pseudomonas aeruginosa selected at 8 ug/ml MIC infected human at 1 g, iv administered as 4 hrs infusion every 8 hrs; assay type: functional
# [22] = fT>MIC in Pseudomonas aeruginosa selected at 16 ug/ml MIC infected human at 1 g, iv administered as 4 hrs infusion every 8 hrs; assay type: functional
# [23] = fT>MIC in Pseudomonas aeruginosa selected at 32 ug/ml MIC infected human at 1 g, iv administered as 4 hrs infusion every 8 hrs; assay type: functional
# [24] = fT>MIC in Pseudomonas aeruginosa selected at 2 ug/ml MIC infected ICR mouse at 1 g, sc administered 2 hrs post infection every 8 hrs; assay type: functional
# [25] = fT>MIC in Pseudomonas aeruginosa selected at 4 ug/ml MIC infected ICR mouse at 1 g, sc administered 2 hrs post infection every 8 hrs; assay type: functional
# [26] = fT>MIC in Pseudomonas aeruginosa selected at 8 ug/ml MIC infected ICR mouse at 1 g, sc administered 2 hrs post infection every 8 hrs; assay type: functional
# [27] = fT>MIC in Pseudomonas aeruginosa selected at 16 ug/ml MIC infected ICR mouse at 1 g, sc administered 2 hrs post infection every 8 hrs; assay type: functional
# [28] = fT>MIC in Pseudomonas aeruginosa selected at 32 ug/ml MIC infected ICR mouse at 1 g, sc administered 2 hrs post infection every 8 hrs; assay type: functional
# [29] = fT>MIC in Pseudomonas aeruginosa selected at 2 ug/ml MIC infected human at 2 g, iv administered as 4 hrs infusion every 8 hrs; assay type: functional
# [30] = fT>MIC in Pseudomonas aeruginosa selected at 4 ug/ml MIC infected human at 2 g, iv administered as 4 hrs infusion every 8 hrs; assay type: functional
# [31] = fT>MIC in Pseudomonas aeruginosa selected at 8 ug/ml MIC infected human at 2 g, iv administered as 4 hrs infusion every 8 hrs; assay type: functional
# [32] = fT>MIC in Pseudomonas aeruginosa selected at 16 ug/ml MIC infected human at 2 g, iv administered as 4 hrs infusion every 8 hrs; assay type: functional
# [33] = fT>MIC in Pseudomonas aeruginosa selected at 32 ug/ml MIC infected human at 2 g, iv administered as 4 hrs infusion every 8 hrs; assay type: functional
# [34] = fT>MIC in Pseudomonas aeruginosa selected at 2 ug/ml MIC infected ICR mouse at 2 g, sc administered 2 hrs post infection every 8 hrs; assay type: functional
# [35] = fT>MIC in Pseudomonas aeruginosa selected at 4 ug/ml MIC infected ICR mouse at 2 g, sc administered 2 hrs post infection every 8 hrs; assay type: functional
# [36] = fT>MIC in Pseudomonas aeruginosa selected at 8 ug/ml MIC infected ICR mouse at 2 g, sc administered 2 hrs post infection every 8 hrs; assay type: functional
# [37] = fT>MIC in Pseudomonas aeruginosa selected at 16 ug/ml MIC infected ICR mouse at 2 g, sc administered 2 hrs post infection every 8 hrs; assay type: functional
# [38] = fT>MIC in Pseudomonas aeruginosa selected at 32 ug/ml MIC infected ICR mouse at 2 g, sc administered 2 hrs post infection every 8 hrs; assay type: functional
# [39] = system: Mus musculus; test: fCmax in ICR mouse at 1 g, sc administered 2 hrs post infection every 8 hrs; assay type: ADME, organism-based; settings: in vivo
# [40] = system: Mus musculus; test: fAUC in ICR mouse at 1 g, sc administered 2 hrs post infection every 8 hrs; assay type: ADME, organism-based; settings: in vivo
# [41] = system: Mus musculus; test: fCmax in ICR mouse at 2 g, sc administered 2 hrs post infection every 8 hrs; assay type: ADME, organism-based; settings: in vivo
# [42] = system: Mus musculus; test: fAUC in ICR mouse at 2 g, sc administered 2 hrs post infection every 8 hrs; assay type: ADME, organism-based; settings: in vivo
# [43] = system: Homo sapiens; test: fCmax in human at 1 g, iv administered as 4 hrs infusion every 8 hrs; assay type: ADME, organism-based; settings: in vivo
# [44] = system: Homo sapiens; test: fAUC in human at 1 g, iv administered as 4 hrs infusion every 8 hrs; assay type: ADME, organism-based; settings: in vivo
# [45] = system: Homo sapiens; test: fCmax in human at 2 g, iv administered as 4 hrs infusion every 8 hrs; assay type: ADME, organism-based; settings: in vivo
# [46] = system: Homo sapiens; test: fAUC in human at 2 g, iv administered as 4 hrs infusion every 8 hrs; assay type: ADME, organism-based; settings: in vivo
# [47] = system: Pseudomonas aeruginosa; test: Antimicrobial activity against Pseudomonas aeruginosa selected at MIC […] to […] ug/ml infected ICR mouse assessed as reduction in bacterial load at 1g, sc administered 2 hrs post infection every 8 hrs; assay type: functional
# [48] = system: Pseudomonas aeruginosa; test: Antimicrobial activity against Pseudomonas aeruginosa selected at MIC […] to […] ug/ml infected ICR mouse assessed as reduction in bacterial load at 2g, sc administered 2 hrs post infection every 8 hrs; assay type: functional
smiles,measurement,setting,value
NC[C@H]1O[C@H](O[C@H]2[C@H](O)[C@@H](O[C@H]3O[C@H](CO)[C@@H](O)[C@H](N)[C@H]3O)[C@H](N)C[C@@H]2N)[C@H](N)C[C@@H]1O [TOBRAMYCIN],MIC,[1],0.125 µg/mL
same,MIC,[2],96 µg/mL
same,MIC,[3],16 µg/mL
same,MIC,[4],0.75 µg/mL
same,MIC,[5],2 µg/mL
same,MIC,[6],0.5 µg/mL
same,MIC,[7],1.5 µg/mL
same,MIC,[8],24 µg/mL
same,MIC,[9],64 µg/mL
same,MIC,[10],3 µg/mL
same,MIC,[11],32 µg/mL
same,MIC,[12],96 µg/mL
same,MIC,[13],3 µg/mL
same,MIC,[14],96 µg/mL
same,MIC,[15],1.5 µg/mL
same,MIC,[16],3 µg/mL
same,MIC,[17],3 µg/mL
same,MIC,[18],2 µg/mL
C[C@@H](O)[C@H]1C(=O)N2C(C(=O)O)=C(S[C@@H]3CN[C@H](CNS(N)(=O)=O)C3)[C@H](C)[C@H]12 [DORIPENEM],MIC,[1],2 µg/mL
same,MIC,[2],4 µg/mL
same,MIC,[3],4 µg/mL
same,MIC,[4],4 µg/mL
same,MIC,[5],4 µg/mL
same,MIC,[6],8 µg/mL
same,MIC,[7],8 µg/mL
same,MIC,[8],8 µg/mL
same,MIC,[9],8 µg/mL
same,MIC,[10],8 µg/mL
same,MIC,[11],16 µg/mL
same,MIC,[12],16 µg/mL
same,MIC,[13],16 µg/mL
same,MIC,[14],16 µg/mL
same,MIC,[15],16 µg/mL
same,MIC,[16],32 µg/mL
same,MIC,[17],32 µg/mL
same,MIC,[18],32 µg/mL
same,fT>MIC,[19],80%
same,fT>MIC,[20],65%
same,fT>MIC,[21],50%
same,fT>MIC,[22],0%
same,fT>MIC,[23],0%
same,fT>MIC,[24],82.5%
same,fT>MIC,[25],70%
same,fT>MIC,[26],52.5%
same,fT>MIC,[27],0%
same,fT>MIC,[28],0%
same,fT>MIC,[29],95%
same,fT>MIC,[30],80%
same,fT>MIC,[31],65%
same,fT>MIC,[32],50%
same,fT>MIC,[33],0%
same,fT>MIC,[34],95%
same,fT>MIC,[35],82.5%
same,fT>MIC,[36],70%
same,fT>MIC,[37],52.5%
same,fT>MIC,[38],0%
same,fCmax,[39],15.9 µg/mL
same,fAUC,[40],68.6 µg·h/mL
same,fCmax,[41],31.9 µg/mL
same,fAUC,[42],137.1 µg·h/mL
same,fCmax,[43],15.6 µg/mL
same,fAUC,[44],64.7 µg·h/mL
same,fCmax,[45],31.2 µg/mL
same,fAUC,[46],129.3 µg·h/mL
same,log10cfu,[47],>=2
same,log10cfu,[48],>=2
C[C@@H](O)[C@H]1C(=O)N2C(C(=O)O)=C(S[C@@H]3CN[C@H](C(=O)N(C)C)C3)[C@H](C)[C@H]12 [MEROPENEM],MIC,[1],4 µg/mL
same,MIC,[2],12 µg/mL
same,MIC,[3],≥ 32 µg/mL
same,MIC,[4],4 µg/mL
same,MIC,[5],4 µg/mL
same,MIC,[6],16 µg/mL
same,MIC,[7],≥ 32 µg/mL
same,MIC,[8],12 µg/mL
same,MIC,[9],16 µg/mL
same,MIC,[10],≥ 32 µg/mL
same,MIC,[11],≥ 32 µg/mL
same,MIC,[12],≥ 32 µg/mL
same,MIC,[13],≥ 32 µg/mL
same,MIC,[14],≥ 32 µg/mL
same,MIC,[15],≥ 32 µg/mL
same,MIC,[16],≥ 32 µg/mL
same,MIC,[17],≥ 32 µg/mL
same,MIC,[18],≥ 32 µg/mL
